From patent US20110098269A1, “Substituted Pyridazinone Derivatives as Histamine-3 (H3) Receptor Ligands” (Cephalon, Inc., priority 2008, published 2011) come the findings set out here.

Data set [1] has as its target T1, rat histamine H3 receptor (Rattus norvegicus, UniProt Q9QYN8).
T1 construct: encoding the entire 445-amino-acid rat histamine H3 receptor; expressed in transfected cells
As to the kind of experiment: Rat H3 radioligand binding ([3H]-N-alpha-methylhistamine, CHO-A3 cell membranes). To be noted: Rat H3 binding constant, class symbols; read-out: rH3 Ki. The source says:
Cell line development and membrane preparation. The rat H3 receptor cDNA was PCR amplified from reverse-transcribed RNA pooled from rat thalamus, hypothalamus, striatum and prefrontal cortex with a sequence corresponding to by #338-1672 of Genbank file #NM_053506, encoding the entire 445-amino-acid rat histamine H3 receptor. This was engineered into the pIRES-neo3 mammalian expression vector, which was stably transfected into the CHO-A3 cell line (Euroscreen, Belgium), followed by clonal selection by limiting dilution. Cells were harvested and cell pellets were frozen (−80° C.). Cell pellets were resuspended in 5 mM Tris-HCl, pH 7.5 with 5 nM EDTA and a cocktail of protease inhibitors (Complete Protease Inhibitor Tablets, Roche Diagnostics). Cells were disrupted using a polytron cell homogenizer and the suspension was centrifuged at 1000×g for 10 minutes at 4° C. The pellet was discarded and the supernatant centrifuged at 40,000×g for 30 min at 4° C. This membrane pellet was washed in membrane buffer containing 50 mM Tris-HCl, pH 7.5 with 0.6 mM EDTA, 5 mM MgCl2 and protease inhibitors, recentrifuged as above and the final pellet resuspended in membrane buffer plus 250 mM sucrose and frozen at −80° C.
(§1) Radioligand Binding. Membranes were resuspended in 50 mM Tris HCl (pH 7.4), 5 mM MgCl2, 0.1% BSA. The membrane suspensions (10 μg protein per well) were incubated in a 96 well microtiter plate with [^3H]-N-alpha-methylhistamine (approximately 1 nM final concentration), test compounds at various concentrations (0.01 nM-30 μM) and scintillation proximity beads (Perkin Elmer, FlashBlueGPCR Scintillating Beads) in a final volume of 80 μl for 4 hours at room temperature, protected from light. Non-specific binding was determined in the presence of 10 μM clobenpropit. Radioligand bound to receptor, and therefore in proximity to the scintillation beads, was measured using a MicroBeta scintillation counter.

In another data set the target is T2, human H3 receptor (Homo sapiens, UniProt Q9Y5N1).
T2 construct: expressed in transfected cells
T2 sequence (Q9Y5N1 whole entry): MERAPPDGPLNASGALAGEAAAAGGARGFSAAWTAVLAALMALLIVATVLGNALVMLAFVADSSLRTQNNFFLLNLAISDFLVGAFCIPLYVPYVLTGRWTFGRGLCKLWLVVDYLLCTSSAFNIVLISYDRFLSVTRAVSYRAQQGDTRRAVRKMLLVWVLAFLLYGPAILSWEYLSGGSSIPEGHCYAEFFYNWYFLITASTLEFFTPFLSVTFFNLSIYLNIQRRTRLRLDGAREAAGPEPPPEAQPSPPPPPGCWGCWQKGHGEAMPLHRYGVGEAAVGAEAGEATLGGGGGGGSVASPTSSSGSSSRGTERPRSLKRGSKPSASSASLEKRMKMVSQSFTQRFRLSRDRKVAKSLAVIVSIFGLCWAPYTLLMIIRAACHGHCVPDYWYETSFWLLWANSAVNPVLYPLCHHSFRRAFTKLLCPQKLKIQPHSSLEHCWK
Briefly: Human H3 radioligand binding ([3H]-N-alpha-methylhistamine, CHO cell membranes). To be noted: Human H3 binding constant, class symbols; read-out: hH3 Ki. On the procedure:
Methods: CHO cells stably expressing the human H3 receptor (GenBank: NM_007232) were harvested and cell pellets were frozen (−80° C.). Cell pellets were resuspended in 5 mM Tris-HCl, pH 7.5 with 5 nM EDTA and a cocktail of protease inhibitors (Complete Protease Inhibitor Tablets, Roche Diagnostics). Cells were disrupted using a polytron cell homogenizer and the suspension was centrifuged at 1000×g for 10 minutes at 4° C. The pellet was discarded and the supernatant centrifuged at 40,000×g for 30 min at 4° C. This membrane pellet was washed in membrane buffer containing 50 mM Tris-HCl, pH 7.5 with 0.6 mM EDTA, 5 mM MgCl2 and protease inhibitors, recentrifuged as above and the final pellet resuspended in membrane buffer plus 250 mM sucrose and frozen at −80° C.
as §1

Each structure is given as a SMILES string. Structures can show the parent of a compound that is named as a salt.

T1 sequence (Q9QYN8 whole entry): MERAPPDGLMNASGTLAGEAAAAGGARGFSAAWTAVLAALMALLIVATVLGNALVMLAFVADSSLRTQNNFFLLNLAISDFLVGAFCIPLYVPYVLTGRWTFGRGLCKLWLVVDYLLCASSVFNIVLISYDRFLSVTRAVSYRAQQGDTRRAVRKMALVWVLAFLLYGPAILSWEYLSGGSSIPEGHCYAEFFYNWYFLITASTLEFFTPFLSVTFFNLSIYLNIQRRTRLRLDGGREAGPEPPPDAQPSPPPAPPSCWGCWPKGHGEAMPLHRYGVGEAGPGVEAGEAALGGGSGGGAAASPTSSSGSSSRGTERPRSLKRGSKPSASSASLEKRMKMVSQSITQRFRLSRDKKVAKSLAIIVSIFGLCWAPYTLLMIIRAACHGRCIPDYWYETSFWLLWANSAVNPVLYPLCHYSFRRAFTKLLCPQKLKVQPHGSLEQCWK

Usually melting point stands for the temperature of the solid-liquid transition. With `CC(C)N1CCc2ccc(-c3ccc(=O)n(C)n3)cc2CC1` (as salt: HCl) [Example 22, 6-(3-Isopropyl-2,3,4,5-tetrahydro-1H-benzo[d]azepin-7-yl)-2-methyl-2H-pyridazin-3-one. HCl], the melting point is 254 to 256 °C.

`Cn1nc(-c2ccc3c(c2)CCN(C2CCCC2)CC3)ccc1=O` (as salt: HCl) [Example 23, 6-(3-Cyclopentyl-2,3,4,5-tetrahydro-1H-benzo[d]azepin-7-yl)-2-methyl-2H-pyridazin-3-one. HCl] returned a melting point of 239 to 240 °C.

`O=C1NN=C(c2ccc3c(c2)CCNCC3)C2CC12` (centres unmarked) (as salt: HCl) [Example 39, 5-(2,3,4,5-Tetrahydro-1H-benzo[d]azepin-7-yl)-3,4-diaza-bicyclo[4.1.0]hept-4-en-2-one] yielded a melting point of 148 to 151 °C.

Take `O=C1NN=C(c2ccc3c(c2)CCN(C2CCC2)CC3)C2CC12` (centres unmarked) (as salt: HCl) [Example 40, 5-(3-Cyclobutyl-2,3,4,5-tetrahydro-1H-benzo[d]azepin-7-yl)-3,4-diaza-bicyclo[4.1.0]hept-4-en-2-one]: the melting point was 129 to 132 °C.

`C[C@@H]1CCCN1CCc1ccc2cc(-c3ccc(=O)[nH]n3)ccc2c1` (as salt: HCl) [Example 70, 6-{6-[2-((R)-2-Methyl-pyrrolidin-1-yl)-ethyl]-naphthalen-2-yl}-2H-pyridazin-3-one] returned a melting point of 295 to 298 °C.

One may read the Ki as a dissociation constant, usually derived from enzyme kinetics or from competition with a known ligand. For `O=c1ccc(-c2ccc3c(c2)CCN(C2CCC2)CC3)n[nH]1` [Example 2, 6-(3-Cyclobutyl-2,3,4,5-tetrahydro-1H-benzo[d]azepin-7-yl)-2H-pyridazin-3-one], the melting point is 250 to 251 °C. Besides, the Ki in data set [1] is below 0.1 µM. At human H3 receptor, the Ki was below 0.1 µM.

Turning to `CC(C)N1N=C(c2ccc3c(c2)CCN(C2CCC2)CC3)CCC1=O` [Example 4, 6-(3-Cyclobutyl-2,3,4,5-tetrahydro-1H-benzo[d]azepin-7-yl)-2-isopropyl-4,5-dihydro-2H-pyridazin-3-one], the melting point was in the range of 140 to 141 °C. The Ki in data set [1] lay within 0.1 to 1 µM. On human H3 receptor, the Ki is below 0.1 µM.

In the case of `CC(C)N1CCc2ccc(C3=NN(C(C)C)C(=O)CC3)cc2CC1` [Example 6, 2-Isopropyl-6-(3-isopropyl-2,3,4,5-tetrahydro-1H-benzo[d]azepin-7-yl)-4,5-dihydro-2H-pyridazin-3-one], the melting point is 125 to 126 °C. Besides, the Ki in data set [1] is 0.1 to 1 µM. In addition, at human H3 receptor, the Ki fell in the range of 0.1 to 1 µM.

For `CC(C)n1nc(-c2ccc3c(c2)CCN(C2CCC2)CC3)ccc1=O` [Example 7, 6-(3-Cyclobutyl-2,3,4,5-tetrahydro-1H-benzo[d]azepin-7-yl)-2-isopropyl-2H-pyridazin-3-one], the melting point was in the range of 199 to 200 °C. In data set [1], the Ki lay within 0.1 to 1 µM. In addition, the Ki on human H3 receptor was below 0.1 µM.

Compound `CC(C)N1CCc2ccc(-c3ccc(=O)n(C(C)C)n3)cc2CC1` [Example 8, 2-Isopropyl-6-(3-isopropyl-2,3,4,5-tetrahydro-1H-benzo[d]azepin-7-yl)-2H-pyridazin-3-one] displayed a melting point of 244 to 245 °C. Besides, the Ki in data set [1] lay in the range of 0.1 to 1 µM. Also, the inhibitory constant (Ki) on human H3 receptor lay in the range of 0.1 to 1 µM.

Compound `O=C1CCC(c2ccc3c(c2)CCN(C2CCC2)CC3)=NN1` [Example 9, 6-(3-Cyclobutyl-2,3,4,5-tetrahydro-1H-benzo[d]azepin-7-yl)-4,5-dihydro-2H-pyridazin-3-one] had a melting point of 178 to 179 °C. The Ki in data set [1] lay within 0.1 to 1 µM. For the same compound, the Ki on human H3 receptor is below 0.1 µM.

Regarding `O=C1CCC(c2ccc3c(c2)CCN(C2CCC2)CC3)=NN1CC(F)(F)F` [Example 10, 6-(3-Cyclobutyl-2,3,4,5-tetrahydro-1H-benzo[d]azepin-7-yl)-2-(2,2,2-trifluoro-ethyl)-4,5-dihydro-2H-pyridazin-3-one], the melting point lay in the range of 139 to 140 °C. Also, the Ki in data set [1] is below 0.1 µM. For the same compound, the Ki on human H3 receptor was below 0.1 µM.

`O=c1ccc(-c2ccc3c(c2)CCN(C2CCC2)CC3)nn1CC(F)(F)F` [Example 11, 6-(3-Cyclobutyl-2,3,4,5-tetrahydro-1H-benzo[d]azepin-7-yl)-2-(2,2,2-trifluoro-ethyl)-2H-pyridazin-3-one] gave a melting point of 142 to 143 °C. Besides, the Ki in data set [1] is below 0.1 µM. Moreover, the Ki at human H3 receptor was below 0.1 µM.

Regarding `CCN1N=C(c2ccc3c(c2)CCN(C2CCC2)CC3)CCC1=O` [Example 12, 6-(3-Cyclobutyl-2,3,4,5-tetrahydro-1H-benzo[d]azepin-7-yl)-2-ethyl-4,5-dihydro-2H-pyridazin-3-one], the melting point is 97 to 98 °C. Moreover, the Ki in data set [1] was below 0.1 µM. Besides, the Ki at human H3 receptor is below 0.1 µM.

Consider `CCCCN1N=C(c2ccc3c(c2)CCN(C2CCC2)CC3)CCC1=O` [Example 13, 2-Butyl-6-(3-cyclobutyl-2,3,4,5-tetrahydro-1H-benzo[d]azepin-7-yl)-4,5-dihydro-2H-pyridazin-3-one], for which the melting point fell in the range of 104 to 105 °C. Moreover, the Ki in data set [1] was below 0.1 µM. The Ki at human H3 receptor was below 0.1 µM.

`CCCCn1nc(-c2ccc3c(c2)CCN(C2CCC2)CC3)ccc1=O` [Example 14, 2-Butyl-6-(3-cyclobutyl-2,3,4,5-tetrahydro-1H-benzo[d]azepin-7-yl)-2H-pyridazin-3-one] displayed a melting point of 88 to 89 °C. The inhibition constant Ki in data set [1] was below 0.1 µM. Also, the Ki on human H3 receptor is below 0.1 µM.

In turn, `CC(C)CN1N=C(c2ccc3c(c2)CCN(C2CCC2)CC3)CCC1=O` [Example 15, 6-(3-Cyclobutyl-2,3,4,5-tetrahydro-1H-benzo[d]azepin-7-yl)-2-isobutyl-4,5-dihydro-2H-pyridazin-3-one] registered a melting point of 134 to 135 °C. Also, the Ki in data set [1] was in the range of 0.1 to 1 µM. For the same compound, the Ki at human H3 receptor was below 0.1 µM.

The compound `CC(C)Cn1nc(-c2ccc3c(c2)CCN(C2CCC2)CC3)ccc1=O` [Example 16, 6-(3-Cyclobutyl-2,3,4,5-tetrahydro-1H-benzo[d]azepin-7-yl)-2-isobutyl-2H-pyridazin-3-one] gave a melting point of 245 to 246 °C. The Ki in data set [1] is 0.1 to 1 µM. For the same compound, the Ki at human H3 receptor is below 0.1 µM.

For `O=C1CCC(c2ccc3c(c2)CCN(C2CCC2)CC3)=NN1CCO` [Example 17, 6-(3-Cyclobutyl-2,3,4,5-tetrahydro-1H-benzo[d]azepin-7-yl)-2-(2-hydroxy-ethyl)-4,5-dihydro-2H-pyridazin-3-one], the melting point was in the range of 141 to 142 °C. In addition, the Ki in data set [1] was below 0.1 µM. On human H3 receptor, the Ki is below 0.1 µM.

Take `O=c1ccc(-c2ccc3c(c2)CCN(C2CCC2)CC3)nn1CCO` [Example 18, 6-(3-Cyclobutyl-2,3,4,5-tetrahydro-1H-benzo[d]azepin-7-yl)-2-(2-hydroxy-ethyl)-2H-pyridazin-3-one]: the melting point was 157 to 158 °C. The Ki in data set [1] was below 0.1 µM. The Ki on human H3 receptor was below 0.1 µM.

`O=C1CCC(c2ccc3c(c2)CCN(C2CCC2)CC3)=NN1C1CCC1` [Example 19, 2-Cyclobutyl-6-(3-cyclobutyl-2,3,4,5-tetrahydro-1H-benzo[d]azepin-7-yl)-4,5-dihydro-2H-pyridazin-3-one] had a melting point of 126 to 128 °C. In addition, the Ki in data set [1] lay in the range of 0.1 to 1 µM. Moreover, on human H3 receptor, the Ki was below 0.1 µM.

Compound `Cn1nc(-c2ccc3c(c2)CCNCC3)ccc1=O` [Example 20, 2-Methyl-6-(2,3,4,5-tetrahydro-1H-benzo[d]azepin-7-yl)-2H-pyridazin-3-one] returned a melting point of 183 to 185 °C. In addition, in data set [1], the Ki was above 1 µM. Further, the inhibition constant Ki on human H3 receptor is above 1 µM.

With `C[C@@H]1CCCN1CCc1ccc(-c2ccc(=O)n(-c3ccc(F)cc3)n2)cc1` [Example 67], the Ki (in data set [1]; on human H3 receptor) was below 0.1 µM throughout.

Take `O=c1ccc(-c2ccc(CCN3CCOCC3)cc2)nn1-c1ccccc1` [Example 68]: the Ki (in data set [1]; at human H3 receptor) was above 1 µM each time.

Regarding `C[C@@H]1CCCN1CCc1ccc(-c2ccc(=O)n(-c3ccccn3)n2)cc1` [Example 69], the Ki in data set [1] is 0.1 to 1 µM; at human H3 receptor, below 0.1 µM.
